Drawing on ChEMBL document CHEMBL1138758, “Efficient method for high-throughput virtual screening based on flexible docking: discovery of novel acetylcholinesterase inhibitors” (J Med Chem, 2004), this text covers IC50 for 14 compounds.

The nature of the experiment: Inhibitory activity towards acetylcholine esterase (AChE). The arrangement: species or system Tetronarce californica.

pIC50: −log10 of the molar value.

In turn, `CC(Cc1ccc(O)cc1)C1CCC(C)C(c2ccc(O)cc2)C1` (centres undefined) showed a negative-log IC50 (pIC50) of 6.21. The compound `CCCc1cc(-n2cccn2)ccc1C(=O)ONC(=N)c1ccc(C(F)(F)F)cc1` had a pIC50 of 4.89. The result for `Cc1c(/N=C/c2ccccc2O)cc2c(c1N)C(C)(C)CC2(C)C` reads 4.80; that for `Cc1nc(N)ncc1-c1nnnn1-c1ccc(-c2ccccc2)cc1`, 4.57; that for `Fc1ccc(N(Cc2ccc3c(c2)OCO3)C(=S)Nc2cccc(C(F)(F)F)c2)cc1`, 5.10. For `Cc1cc(C2(c3cc(C)c(O)c(C)c3)CCCCC2)cc(C)c1O`, the negative logarithm of the IC50 (pIC50) was 4.82. Compared with the last compound, the pIC50 is 0.28 log units lower. `O=C(CC1S/C(=N/c2ccc(C3CCCCC3)cc2)NC1=O)Nc1ccc(OC(F)(F)F)cc1` (centres undefined) showed a pIC50 of 5.54. The result for `CN(C)c1ccc(-c2c3cc(O)c(=O)cc-3oc3cc(O)c(O)cc23)cc1` reads 4.66. For `COc1ccc(/N=C/c2cn(-c3ccc(OC)cc3)cc2/C=N/c2ccc(OC)cc2)cc1` the value was 4.85. The result for `C/C(=N/O)c1ccc(Cl)c(NC(=O)c2c(-c3ccccc3Cl)noc2C)c1` reads 5.17; that for `COc1cc(N)c(Cl)cc1C(=O)NC1CCN(Cc2ccccc2)CC1` [CLEBOPRIDE], 6.05.

In turn, `O=C(O[C@@H]1Cc2c(O)cc(O)cc2O[C@@H]1c1ccc(O)c(O)c1)c1cc(O)c(O)c(O)c1` [EPICATECHIN GALLATE] gave a pIC50 of 4.55. The result for `O=C(Nc1cccc(C2=NCCN2)c1)Nc1cccc(C2=NCCN2)c1` [IMIDOCARB] reads 6.23; that for `CNC(=O)Oc1ccc2c(c1)[C@]1(C)CCN(C)[C@@H]1N2C` [PHYSOSTIGMINE], 6.44.

The pIC50 is the IC50 on a negative log10 scale, so that one unit is a factor of ten. Low values mean a large IC50, high ones a small IC50.
